From ChEMBL document CHEMBL1201862, “PubChem BioAssay data set” (2004) come the findings set out here.

The structures appear in SMILES notation.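 Where inhibition never reached the appropriate level, the endpoint shown equals the highest concentration tested. Otherwise, values were interpolated linearly from a five-concentration, 48-hour dose response in 96-well plates. GI50 = concentration required for 50% inhibition of growth.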 Calls of active or inactive are those of the source. No stated cut-off is given here; in the data, active = GI50 up to about 1.1 µM and inactive = higher.

Among the test systems are RPMI-8226; Hs-578T; IGROV-1; MCF7; U-251; HT-29; SK-MEL-5; SF-268; SNB-75; MOLT-4; OVCAR-3; SK-MEL-2; K562; NCI-H460; UACC-62; SK-OV-3; ACHN; SW-620; CAKI-1; OVCAR-5.
Common to all, as to assay: growth of human tumour cells (NCI), 48 h

As to `C/C(=N\NC(=N)N)C(CN(C)C)C(c1ccccc1)c1c(O)c2ccccc2oc1=O` (stereo not given), the GI50 with RPMI-8226, in the experiment on Hs-578T, in the experiment on IGROV-1, in the experiment on MCF7, in the experiment on U-251 and in the experiment on HT-29 was > 100 µM (inactive) throughout. The GI50 is > 100 µM (inactive) in the experiment with SK-MEL-5; > 100 µM (inactive) in the experiment on SF-268; 98.4 µM (inactive) in the experiment with SNB-75; > 100 µM (inactive) in the experiment with MOLT-4; > 100 µM (inactive) with OVCAR-3; > 100 µM (inactive) with SK-MEL-2. Also, the GI50 in the experiment with K562 was > 100 µM (inactive); in the experiment on NCI-H460 it was > 100 µM (inactive); in the experiment on UACC-62 it was > 47.6 µM (inactive); in the experiment with SK-OV-3, > 100 µM (inactive); in the experiment with ACHN, > 100 µM (inactive); with SW-620, > 100 µM (inactive). Also, the GI50 in the experiment with CAKI-1 and with OVCAR-5 was > 100 µM (inactive) each time.
Regarding `CN(CCNC(=O)c1nn(-c2ccc(Cl)cc2Cl)c2c1Cc1ccccc1-2)CCNC(=O)c1nn(-c2ccc(Cl)cc2Cl)c2c1Cc1ccccc1-2`, the GI50 with RPMI-8226 was 1.62 µM (inactive); in the experiment with Hs-578T it was 1.53 µM (inactive); in the experiment on IGROV-1, 4.53 µM (inactive); with MCF7, 2.56 µM (inactive); in the experiment with U-251 it was 2.49 µM (inactive); in the experiment with HT-29, 2.19 µM (inactive). Further, the GI50 was 1.74 µM (inactive) with SK-MEL-5; 12.1 µM (inactive) in the experiment with SF-268; 5.21 µM (inactive) in the experiment with SNB-75; 2.12 µM (inactive) with MOLT-4; 3.55 µM (inactive) in the experiment with OVCAR-3; 2.05 µM (inactive) in the experiment with SK-MEL-2. For the same compound, the GI50 in the experiment with K562 is 1.57 µM (inactive); in the experiment with NCI-H460, 1.75 µM (inactive); in the experiment on UACC-62, 1.85 µM (inactive); with SK-OV-3, 15.7 µM (inactive); with ACHN, 4.53 µM (inactive); in the experiment on SW-620 it was 1.86 µM (inactive). Besides, the values for the GI50 in the experiment with CAKI-1 and in the experiment on OVCAR-5 were 4.94 µM (inactive) and 20 µM (inactive), respectively.
On to `C[C@H](CCC1=NCCN1)[C@H]1CC[C@H]2[C@@H]3CC[C@@H]4C[C@H](O)CC[C@]4(C)[C@H]3CC[C@]12C`, for which the GI50 in the experiment with RPMI-8226 was 3.13 µM (inactive); in the experiment on Hs-578T it was 14.8 µM (inactive); with IGROV-1, 8.28 µM (inactive); in the experiment on MCF7 it was 6.52 µM (inactive); in the experiment on U-251, 6.05 µM (inactive); in the experiment on HT-29, 0.575 µM (active). Besides, the GI50 was 1.63 µM (inactive) in the experiment with SK-MEL-5; 10.6 µM (inactive) in the experiment on SF-268; 5.07 µM (inactive) with SNB-75; 2.7 µM (inactive) with MOLT-4; 0.394 µM (active) in the experiment with OVCAR-3; 4.49 µM (inactive) in the experiment with SK-MEL-2. Also, the GI50 was 2.49 µM (inactive) with K562; 2.91 µM (inactive) with NCI-H460; 2.07 µM (inactive) with UACC-62; 18.8 µM (inactive) in the experiment on SK-OV-3; 7.91 µM (inactive) with ACHN; 6.84 µM (inactive) in the experiment with SW-620. For the same compound, the GI50 in the experiment with CAKI-1 was 3.51 µM (inactive); in the experiment on OVCAR-5, 10.7 µM (inactive).
On to `CN1CCc2c(sc3ncn(N)c(=N)c23)C1`, for which the GI50 in the experiment with RPMI-8226, in the experiment with Hs-578T, in the experiment with IGROV-1, in the experiment on MCF7, with U-251 and with HT-29 was > 100 µM (inactive) in each case. For the same compound, the GI50 was > 100 µM (inactive) in the experiment on SK-MEL-5; > 100 µM (inactive) with SF-268; > 100 µM (inactive) with SNB-75; > 100 µM (inactive) in the experiment with MOLT-4; > 100 µM (inactive) in the experiment with OVCAR-3; 61.2 µM (inactive) in the experiment with SK-MEL-2. The GI50 in the experiment on K562, in the experiment with NCI-H460, with UACC-62, in the experiment with SK-OV-3, with ACHN and with SW-620 was > 100 µM (inactive) in each case. Further, the GI50 in the experiment on CAKI-1 and in the experiment with OVCAR-5 was > 100 µM (inactive) each time.
